Experimental findings from patent US20230150974A1 (Foghorn Therapeutics Inc., priority 2020, published 2023) are described below.

Structures can show the parent of a compound that is named as a salt. Where only a bound is given, the exact number is not on record here.

The target in one assay is T1, HiBiT-BRM (Homo sapiens, UniProt P51531).
T1 construct: expressed in transfected cells
As to the kind of experiment: HiBiT-BRM cell-based degradation assay (Nano-Glo HiBiT Lytic Detection). As to conditions: HeLa cells expressing HiBiT-BRM, 24 h; for DC50: read-out: BRM HiBit Degradation IC50. The method in brief:
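Luminescence from HiBiT–LgBiT complementation in lysates of a stable HiBiT-BRM HeLa line measured after 24 h compound exposure. Degradation expressed as percent relative to DMSO-treated cells and cells given 2 μM of a known BRM/BRG1 degrader.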
On the technique in general: The HiBiT peptide binds its large partner to form an active luciferase.

A further assay has as its target T2, HiBit-BRG1 (Homo sapiens, UniProt P51532).
T2 construct: expressed in transfected cells
The experiment in a line: HiBit-BRG1 cell-based degradation assay (Nano-Glo HiBiT Lytic Detection). As to conditions: HeLa cells expressing HiBit-BRG1 and LgBit, 24 h; for DC50: read-out: BRG1 HiBit Degradation IC50; for Dmax: read-out: BRG1 HiBit Degradation Maximum (%). The method in brief: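 Percent degradation derived from lytic HiBiT signal, normalized to DMSO-treated cells and to cells given 2 μM of a known BRM/BRG1 degrader. The HeLa line stably expressed HiBit-BRG1 and LgBit; treatment lasted 24 h at 5000 cells per well.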

T2 sequence (P51532 whole entry): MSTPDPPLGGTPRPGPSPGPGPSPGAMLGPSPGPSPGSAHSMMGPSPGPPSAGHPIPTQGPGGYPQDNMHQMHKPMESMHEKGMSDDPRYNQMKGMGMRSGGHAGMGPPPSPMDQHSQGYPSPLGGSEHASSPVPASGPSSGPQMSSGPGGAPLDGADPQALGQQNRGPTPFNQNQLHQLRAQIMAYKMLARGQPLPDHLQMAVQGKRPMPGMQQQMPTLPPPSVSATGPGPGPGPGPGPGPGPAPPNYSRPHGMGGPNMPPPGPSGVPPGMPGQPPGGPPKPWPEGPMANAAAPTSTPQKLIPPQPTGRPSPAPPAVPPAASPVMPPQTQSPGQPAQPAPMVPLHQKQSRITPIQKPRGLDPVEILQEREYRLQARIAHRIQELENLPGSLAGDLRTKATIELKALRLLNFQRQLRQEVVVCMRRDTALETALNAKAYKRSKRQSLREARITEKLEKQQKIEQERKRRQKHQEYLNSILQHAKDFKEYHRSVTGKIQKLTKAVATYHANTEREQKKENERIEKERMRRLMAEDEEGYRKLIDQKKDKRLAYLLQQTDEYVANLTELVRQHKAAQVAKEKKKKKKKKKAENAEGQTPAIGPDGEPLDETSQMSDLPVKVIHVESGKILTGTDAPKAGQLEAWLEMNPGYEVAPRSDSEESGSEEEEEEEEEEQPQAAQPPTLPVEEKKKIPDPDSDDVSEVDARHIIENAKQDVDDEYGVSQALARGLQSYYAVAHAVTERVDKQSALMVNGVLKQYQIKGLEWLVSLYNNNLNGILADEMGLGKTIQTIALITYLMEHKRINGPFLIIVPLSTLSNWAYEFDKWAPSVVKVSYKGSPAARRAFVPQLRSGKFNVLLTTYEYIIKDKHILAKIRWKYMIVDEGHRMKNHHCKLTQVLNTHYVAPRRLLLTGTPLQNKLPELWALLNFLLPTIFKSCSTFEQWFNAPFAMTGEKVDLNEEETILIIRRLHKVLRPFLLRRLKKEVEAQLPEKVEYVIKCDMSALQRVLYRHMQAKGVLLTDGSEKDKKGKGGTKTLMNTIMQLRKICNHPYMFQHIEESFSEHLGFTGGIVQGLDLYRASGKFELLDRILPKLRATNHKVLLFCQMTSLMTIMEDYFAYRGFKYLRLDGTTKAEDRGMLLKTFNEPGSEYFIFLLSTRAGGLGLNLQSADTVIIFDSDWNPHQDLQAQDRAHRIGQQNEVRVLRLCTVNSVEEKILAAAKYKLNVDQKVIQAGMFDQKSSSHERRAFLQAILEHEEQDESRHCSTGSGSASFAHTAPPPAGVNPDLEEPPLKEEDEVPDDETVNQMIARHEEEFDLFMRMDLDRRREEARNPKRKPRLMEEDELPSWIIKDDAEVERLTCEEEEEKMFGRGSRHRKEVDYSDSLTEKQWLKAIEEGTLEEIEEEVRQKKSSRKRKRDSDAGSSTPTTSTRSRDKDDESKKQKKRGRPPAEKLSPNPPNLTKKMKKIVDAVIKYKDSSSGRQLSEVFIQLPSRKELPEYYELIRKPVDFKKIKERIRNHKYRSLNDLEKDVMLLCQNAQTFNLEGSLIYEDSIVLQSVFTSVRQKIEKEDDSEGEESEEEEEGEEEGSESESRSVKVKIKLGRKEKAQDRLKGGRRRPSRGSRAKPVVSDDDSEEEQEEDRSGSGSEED
T1 sequence (P51531 whole entry): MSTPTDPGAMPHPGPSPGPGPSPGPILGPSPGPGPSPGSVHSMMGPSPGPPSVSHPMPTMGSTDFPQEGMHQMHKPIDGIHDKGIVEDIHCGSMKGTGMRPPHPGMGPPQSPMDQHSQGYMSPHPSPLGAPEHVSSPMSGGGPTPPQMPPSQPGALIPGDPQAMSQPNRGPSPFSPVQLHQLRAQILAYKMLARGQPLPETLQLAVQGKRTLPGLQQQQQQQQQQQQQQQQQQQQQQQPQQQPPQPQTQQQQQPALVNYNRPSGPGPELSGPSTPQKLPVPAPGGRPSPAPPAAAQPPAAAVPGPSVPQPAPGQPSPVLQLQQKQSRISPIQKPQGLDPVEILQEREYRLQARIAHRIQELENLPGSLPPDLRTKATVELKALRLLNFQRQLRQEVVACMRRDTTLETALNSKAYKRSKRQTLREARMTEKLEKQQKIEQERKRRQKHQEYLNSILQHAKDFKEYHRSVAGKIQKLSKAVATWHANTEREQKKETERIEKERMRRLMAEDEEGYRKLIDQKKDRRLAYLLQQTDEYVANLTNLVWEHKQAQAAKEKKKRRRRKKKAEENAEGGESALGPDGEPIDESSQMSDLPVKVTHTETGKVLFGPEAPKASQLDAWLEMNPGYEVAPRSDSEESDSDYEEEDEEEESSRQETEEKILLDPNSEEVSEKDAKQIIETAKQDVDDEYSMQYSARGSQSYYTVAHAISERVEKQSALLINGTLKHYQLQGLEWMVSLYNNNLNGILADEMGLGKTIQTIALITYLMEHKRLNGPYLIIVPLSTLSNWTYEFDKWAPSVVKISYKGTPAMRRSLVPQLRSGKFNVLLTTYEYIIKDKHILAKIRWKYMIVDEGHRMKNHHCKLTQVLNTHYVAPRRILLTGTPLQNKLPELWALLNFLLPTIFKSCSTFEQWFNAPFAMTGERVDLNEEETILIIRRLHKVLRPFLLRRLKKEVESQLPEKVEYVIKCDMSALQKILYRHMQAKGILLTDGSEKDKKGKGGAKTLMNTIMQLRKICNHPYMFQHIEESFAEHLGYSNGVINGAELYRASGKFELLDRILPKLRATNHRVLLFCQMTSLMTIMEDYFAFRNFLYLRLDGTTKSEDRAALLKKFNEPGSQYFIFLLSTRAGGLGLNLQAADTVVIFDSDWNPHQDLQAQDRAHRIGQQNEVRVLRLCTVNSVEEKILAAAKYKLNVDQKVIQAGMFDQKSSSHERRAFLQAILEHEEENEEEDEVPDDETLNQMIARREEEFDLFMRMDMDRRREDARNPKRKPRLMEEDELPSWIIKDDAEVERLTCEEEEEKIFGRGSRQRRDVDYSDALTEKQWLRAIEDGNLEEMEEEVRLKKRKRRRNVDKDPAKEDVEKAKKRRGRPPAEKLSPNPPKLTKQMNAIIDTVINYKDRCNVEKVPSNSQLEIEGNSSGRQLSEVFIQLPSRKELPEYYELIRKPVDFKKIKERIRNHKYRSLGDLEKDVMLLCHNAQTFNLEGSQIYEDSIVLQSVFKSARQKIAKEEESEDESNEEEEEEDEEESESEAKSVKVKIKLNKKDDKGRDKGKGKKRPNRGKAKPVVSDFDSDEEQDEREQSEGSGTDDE

In the case of `Cc1ncsc1-c1ccc(CNC(=O)[C@@H]2C[C@@H](O)CN2C(=O)[C@@H](NC(=O)CCN2CCC(C3CN(C(=O)c4ccc(CCOc5cc(-c6ccccc6O)nnc5N)cc4)C3)CC2)C(C)(C)C)cc1` [Compound 204, (2S,4R)-1-((S)-2-(3-(4-(1-(4-(2-((3-amino-6-(2-hydroxyphenyl)pyridazin-4-yl)oxy)ethyl)benzoyl)azetidin-3-yl)piperidin-1-yl)propanamido)-3,3-dimethylbutanoyl)-4-hydroxy-N-(4-(4-methylthiazol-5-yl)benzyl)pyrrolidine-2-carboxamide], at HiBiT-BRM, the “BRM HiBit Degradation Maximum (%)” value was “B (“B” indicates maximum degradation ≥50%)” and the DC50 was greater than 1000 nM. At HiBit-BRG1, the DC50 was greater than 1000 nM and the Dmax is less than 50%.
Consider `Nc1nnc(-c2ccccc2O)cc1OCCc1ccc(C(=O)NCCCCCNc2ccc3c(c2)C(=O)N(C2CCC(=O)NC2=O)C3=O)cc1` (stereo not shown) [Compound 51, 4-(2-[[3-amino-6-(2-hydroxyphenyl)pyridazin-4-yl]oxy]ethyl)-N-(5-[[2-(2,6-dioxopiperidin-3-yl)-1,3-dioxoisoindol-5-yl]amino]pentyl)benzamide], for which, on HiBiT-BRM, the “BRM HiBit Degradation Maximum (%)” value is listed as “C (“C” indicates maximum degradation <50%)” and the DC50 was greater than 1000 nM. Moreover, at HiBit-BRG1, the DC50 is greater than 1000 nM and the Dmax was less than 50%.
Turning to `Cc1ncsc1-c1ccc([C@H](C)NC(=O)[C@@H]2C[C@@H](O)CN2C(=O)[C@@H](NC(=O)CCCCCCCCCCCCCCC(=O)N(C)Cc2ccc(CCOc3cc(-c4ccccc4O)nnc3N)cc2)C(C)(C)C)cc1` [Compound 215, N1-(4-(2-((3-amino-6-(2-hydroxyphenyl)pyridazin-4-yl)oxy)ethyl)benzyl)-N16-((S)-1-((2S,4R)-4-hydroxy-2-(((S)-1-(4-(4-methylthiazol-5-yl)phenyl)ethyl)carbamoyl)pyrrolidin-1-yl)-3,3-dimethyl-1-oxobutan-2-yl)-N1-methylhexadecanediamide], on HiBiT-BRM, the “BRM HiBit Degradation Maximum (%)” value is “A (“A” indicates maximum degradation ≥75%)” and the DC50 was greater than 10 nM. On HiBit-BRG1, the DC50 was greater than 1000 nM and the Dmax is less than 50%.
As for `Nc1nnc(-c2ccccc2O)cc1OCCc1ccc(CNCCCOc2cccc3c2C(=O)N(C2CCC(=O)NC2=O)C3=O)cc1` (stereo not shown) [Compound 122, 4-[3-([[4-(2-[[3-amino-6-(2-hydroxyphenyl)pyridazin-4-yl]oxy]ethyl)phenyl]methyl]amino)propoxy]-2-(2,6-dioxopiperidin-3-yl)isoindole-1,3-dione], at HiBiT-BRM, the “BRM HiBit Degradation Maximum (%)” value is “B (“B” indicates maximum degradation ≥50%)” and the DC50 is greater than 100 nM. Also, at HiBit-BRG1, the DC50 is greater than 1000 nM and the Dmax was greater than 50%.
For `Cc1ncsc1-c1ccc(CNC(=O)[C@@H]2C[C@@H](O)CN2C(=O)[C@@H](NC(=O)CN2CCC(O[C@H]3C[C@H](Oc4cc(N5[C@@H]6CC[C@H]5CN(c5cc(-c7ccccc7O)nnc5N)C6)ccn4)C3)CC2)C(C)(C)C)cc1` [Compound 243, (2S,4R)-1-((2S)-2-(2-(4-((1r,3S)-3-((4-(3-(3-amino-6-(2-hydroxyphenyl)pyridazin-4-yl)-3,8-diazabicyclo[3.2.1]octan-8-yl)pyridin-2-yl)oxy)cyclobutoxy)piperidin-1-yl)acetamido)-3,3-dimethylbutanoyl)-4-hydroxy-N-(4-(4-methylthiazol-5-yl)benzyl)pyrrolidine-2-carboxamide, tri-formic acid] the same measures were “A (“A” indicates maximum degradation ≥75%)”, less than 10 nM, greater than 10 nM and greater than 75%.
Taken in the same sequence, the figures for `Cc1ncsc1-c1ccc(CNC(=O)[C@@H]2C[C@@H](O)CN2C(=O)[C@@H](NC(=O)CCN2CC3CN(C(=O)c4ccc(CCOc5cc(-c6ccccc6O)nnc5N)cc4)CC32)C(C)(C)C)cc1` (stereo partly drawn) [Compound 231, (2S,4R)-1-((2S)-2-(3-(3-(4-(2-((3-amino-6-(2-hydroxyphenyl)pyridazin-4-yl)oxy)ethyl)benzoyl)-3,6-diazabicyclo[3.2.0]heptan-6-yl)propanamido)-3,3-dimethylbutanoyl)-4-hydroxy-N-(4-(4-methylthiazol-5-yl)benzyl)pyrrolidine-2-carboxamide] were “C (“C” indicates maximum degradation <50%)”, greater than 1000 nM, greater than 1000 nM and less than 50%.
Take `Cc1ncsc1-c1ccc([C@H](C)NC(=O)[C@@H]2C[C@@H](O)CN2C(=O)[C@@H](NC(=O)CCCCCCCCCNC(=O)c2ccc(CCOc3cc(-c4ccccc4O)nnc3N)cc2)C(C)(C)C)cc1` [Compound 171, (2S,4R)-1-((S)-2-(10-(4-(2-((3-amino-6-(2-hydroxyphenyl)pyridazin-4-yl)oxy)ethyl)benzamido)decanamido)-3,3-dimethylbutanoyl)-4-hydroxy-N-((S)-1-(4-(4-methylthiazol-5-yl)phenyl)ethyl)pyrrolidine-2-carboxamide]: at HiBiT-BRM, the “BRM HiBit Degradation Maximum (%)” value was “A (“A” indicates maximum degradation ≥75%)” and the DC50 is greater than 100 nM. Also, on HiBit-BRG1, the DC50 is greater than 1000 nM and the Dmax is greater than 50%.
On to `Nc1nnc(-c2ccccc2O)cc1OCCc1ccc(CNCCN2CC3CC2CN3c2cccc3c2C(=O)N(C2CCC(=O)NC2=O)C3=O)cc1` (stereo not shown) [Compound 158, 4-(5-(2-((4-(2-((3-amino-6-(2-hydroxyphenyl)pyridazin-4-yl)oxy)ethyl)benzyl)amino)ethyl)-2,5-diazabicyclo[2.2.1]heptan-2-yl)-2-(2,6-dioxopiperidin-3-yl)isoindoline-1,3-dione], for which, on HiBiT-BRM, the “BRM HiBit Degradation Maximum (%)” value was “B (“B” indicates maximum degradation ≥50%)” and the DC50 was greater than 100 nM. On HiBit-BRG1, the DC50 was greater than 100 nM and the Dmax is greater than 50%.
For `CN(CCCCCNc1ccc2c(c1)C(=O)N(C1CCC(=O)NC1=O)C2=O)Cc1ccc(CCOc2cc(-c3ccccc3O)nnc2N)cc1` (stereo not shown) [Compound 151, 5-[[5-([[4-(2-[[3-amino-6-(2-hydroxyphenyl)pyridazin-4-yl]oxy]ethyl)phenyl]methyl](methyl)amino)pentyl]amino]-2-(2,6-dioxopiperidin-3-yl)isoindole-1,3-dione], on HiBiT-BRM, the “BRM HiBit Degradation Maximum (%)” value is “C (“C” indicates maximum degradation <50%)” and the DC50 is greater than 1000 nM. On HiBit-BRG1, the DC50 is greater than 1000 nM and the Dmax was greater than 50%.
As for `CN(CCCCCOc1cccc2c1C(=O)N(C1CCC(=O)NC1=O)C2=O)Cc1ccc(CCN(C)c2cc(-c3ccccc3O)nnc2N)cc1` (stereo not shown) [Compound 145, 4-((5-((4-(2-((3-amino-6-(2-hydroxyphenyl)pyridazin-4-yl)(methyl)amino)ethyl)benzyl)(methyl)amino)pentyl)oxy)-2-(2,6-dioxopiperidin-3-yl)isoindoline-1,3-dione formate], at HiBiT-BRM, the “BRM HiBit Degradation Maximum (%)” value is “C (“C” indicates maximum degradation <50%)” and the DC50 was greater than 1000 nM. At HiBit-BRG1, the DC50 was greater than 1000 nM and the Dmax is less than 50%.
